Paper PMC8780434 (Viruses, 2022)
Where “and” joins values, the source holds several entries; their conditions need not be identical. Equal entries are not always repeated. Where two headings read alike, the source gives them in different places.

Legend:
EV71 [1] = assay: Western blot of viral VP1 in EV71-infected RD cells; details: for VP1/Tubulin (%): EV71 MOI 1, 6 h, DMSO = 100; for antiviral activity against EV71 infections, rank among SSRIs: 5 or 10 μM, Western blot
[2] = Cell viability assay (CellTiter 96 AQueous) in HeLa cells; details: human
[3] = Cell viability assay (CellTiter 96 AQueous) in RD cells; details: human
EV71 [4] = assay: Immunofluorescence assay (IFA) of anti-EV71 potency; format: cell-based, EV71 (strain BrCr); details: Enterovirus A, EV71 MOI 0.1, 12 h p.i.
[5] = Secondary screening cell cytotoxicity; details: at 10 μM, secondary screening criterion
[6] = parameters: method as in earlier work; details: cited from earlier work
EV71 [7] = assay: Low-pH exposure assay (Western blot and plaque assay); format: cell-based, EV71 (strain BrCr); details: 10 μM; for times more viral titer than the sertraline-treated pH 7.4 control: 12 h
[8] = human, 12 h, 10 μM
EV71 [9] = assay: Time-of-addition assay (RT-qPCR of viral RNA); format: cell-based, EV71 (strain BrCr); details: RD cells, 10 μM, MOI 0.1, RT-qPCR
EV71 [10] = assay: Virus internalization assay (RT-qPCR); details: RD cells, 5 or 10 μM, 37 °C 1 h after binding, trypsinized, MOI 5
EV71 [11] = assay: Virus binding assay (RT-qPCR); details: RD cells, 5 or 10 μM, 0 °C 1 h, MOI 5
EV71 [12] = assay: FRET-based biosensor drug screening (HeLa-G2AwtR cells) for EV71 inhibitors; format: cell-based, EV71 (strain BrCr); details: Enterovirus A, read-out: inhibition rate
in vitro [13] = details: human
in vitro [14] = details: human; remark: listed apart in the source
EV71 [15] = details: active in the range of several mM; cited from earlier work
[16] = 5 μM drug, HeLa-G2AwtR cells, EV71 MOI 1, 12 h

In the case of `Fc1ccc([C@@H]2CCNC[C@H]2COc2ccc3c(c2)OCO3)cc1` [PAR, paroxetine], the “VP1/Tubulin (%)” value (EV71 [1]; 5 μM) is reported as 74% and the “VP1/Tubulin (%)” value (EV71 [1]; 10 μM) is reported as 48%.

`CCCCCCCCc1ccc(CCC(N)(CO)CO)cc1` [Fingolimod] gave a CC50 at 12 h [2] of 21.8 µM, a CC50 at 12 h [3] of 24.5 µM and an IC50 (EV71 [4]; HeLa cells) of 2.94 µM. For the same compound, the IC50 (EV71 [4]; RD cells) was 3.59 µM and the cell cytotoxicity [5] was under 20%.

In the case of `CCN(CC)CCCC(C)Nc1ccnc2cc(Cl)ccc12` (stereo not shown) [CQ, chloroquine], the “VP1/Tubulin (%)” value (EV71 [1]; 5 μM) is reported as 52% and the “VP1/Tubulin (%)” value (EV71 [1]; 10 μM) is reported as 15%.

In the case of `CN[C@H]1CC[C@@H](c2ccc(Cl)c(Cl)c2)c2ccccc21` [Sertraline], the “VP1/Tubulin (%)” value (EV71 [1]; 5 μM) is reported as 58%, the “VP1/Tubulin (%)” value (EV71 [1]; 10 μM) is reported as 10% and the “antiviral activity against EV71 infections, rank among SSRIs” value (EV71 [1]) is reported as “strongest inhibitory effect”. For the same compound, the “maximum concentration in human plasma” value [6] was “approximately 200 ng/mL and ~ 654 nM”, the “times more viral titer than the sertraline-treated pH 7.4 control” value (EV71 [7]; HeLa cells, pH 5 medium 10 min) was 13.4 times and the “times more viral titer than the sertraline-treated pH 7.4 control” value (EV71 [7]; HeLa cells, pH 5.5 medium 10 min) was 4 times. The “viral replication at the levels of viral protein after low-pH shocks” value (EV71 [7]; RD and HeLa cells, pH 5.5 and 5, 6 h p.i., Western blot) was “markedly rescued”, the “times more viral titer than the sertraline-treated pH 7.4 control” value (EV71 [7]; RD cells, pH 5 medium 10 min) was 16 times and the “times more viral titer than the sertraline-treated pH 7.4 control” value (EV71 [7]; RD cells, pH 5.5 medium 10 min) was 5.7 times. The cell cytotoxicity [8] was under 20%, the “viral RNA levels, post-entry step” value (EV71 [9]; drug present 2-12 h) was “negligible effect” and the “viral RNA levels, entry step” value (EV71 [9]; drug present -2 to 2 h) was “profound reduction”. For the same compound, the “viral RNA levels, virus internalization, versus drug-free control” value (EV71 [10]) was “undetectable difference” and the “viral RNA levels, virus binding, versus drug-free control” value (EV71 [11]) was “undetectable difference”.

In the case of `CN(C)CCCN1c2ccccc2Sc2ccc(Cl)cc21` [CPZ, chlorpromazine], the “VP1/Tubulin (%)” value (EV71 [1]; 5 μM) is reported as 109% and the “VP1/Tubulin (%)” value (EV71 [1]; 10 μM) is reported as 54%.

Compound `COc1cccc2c1C(=O)c1c(O)c3c(c(O)c1C2=O)C[C@@](O)(C(C)=O)C[C@@H]3O[C@H]1C[C@H](N)[C@H](O)[C@H](C)O1` [daunorubicin] has an inhibition at 5 µM (EV71 [12]; EV71, 12 h) of over 50%.

For `OC(c1cc(C(F)(F)F)nc2c(C(F)(F)F)cccc12)C1CCCCN1` (stereo not shown) [Mefloquine], the CC50 at 12 h (in vitro [13]) was 29.8 µM, the cell cytotoxicity [8] was under 20% and the IC50 (EV71 [4]; HeLa cells) was 3.25 µM. The IC50 (EV71 [4]; RD cells) was 3.89 µM and the CC50 at 12 h (in vitro [14]) was 30 µM.

Compound `COc1cccc2c1C(=O)c1c(O)c3c(c(O)c1C2=O)C[C@@](O)(C(=O)CO)C[C@@H]3O[C@H]1C[C@H](N)[C@H](O)[C@H](C)O1` [doxorubicin] has an inhibition at 5 µM (EV71 [12]; [16]) of over 50%.

Work on `Nc1ccn([C@@H]2O[C@H](CO)[C@@H](O)C2(F)F)c(=O)n1` [gemcitabine] yielded an inhibition at 5 µM (EV71 [12]; [16]) of over 50%.

`CC(=O)[C@]1(O)Cc2c(O)c3c(c(O)c2[C@@H](O[C@H]2C[C@H](N)[C@H](O)[C@H](C)O2)C1)C(=O)c1ccccc1C3=O` [idarubicin] gave an inhibition at 5 µM (EV71 [12]; [16]) of over 50%.

`O=C1c2c(O)ccc(O)c2C(=O)c2c(NCCNCCO)ccc(NCCNCCO)c21` [mitoxantrone] showed an inhibition at 5 µM (EV71 [12]; [16]) of over 50%.

With `COCCCC/C(=N\OCCN)c1ccc(C(F)(F)F)cc1` [FLX, fluvoxamine] the “VP1/Tubulin (%)” value (EV71 [1]; 5 μM) was 82%, the “VP1/Tubulin (%)” value (EV71 [1]; 10 μM) was 77% and the “antiviral activity against EV71 infections, rank among SSRIs” value (EV71 [1]) was “weakest antiviral activity”.

`OC(CNCC(O)C1CCc2cc(F)ccc2O1)C1CCc2cc(F)ccc2O1` (stereo not shown) [Nebivolol] showed a CC50 at 12 h (in vitro [13]) of 32.7 µM, a cell cytotoxicity [8] of under 20% and an IC50 (EV71 [4]; HeLa cells) of 4.17 µM. It also gave an IC50 (EV71 [4]; RD cells) of 4.74 µM and a CC50 at 12 h (in vitro [14]) of 32.9 µM.

For `Oc1c(Cl)cc(Cl)c(Cl)c1Cc1c(O)c(Cl)cc(Cl)c1Cl` [Hexachorophene, Hexachlorophene], the cell cytotoxicity [5] was under 20%.

In the case of `Cl.N` [NH4Cl], the “antiviral effect compared with sertraline and chloroquine” value (EV71 [15]) is listed as “much weaker antiviral effect”.

`COc1cccc2c1C(=O)c1c(O)c3c(c(O)c1C2=O)C[C@@](O)(C(=O)CO)C[C@@H]3O[C@H]1C[C@H](N)[C@@H](O)[C@H](C)O1` [epirubicin] showed an inhibition at 5 µM (EV71 [12]; [16]) of over 50%.
